Assay results taken from patent US20260130933A1, “PHARMACEUTICAL COMPOSITION FOR PREVENTION OR TREATMENT OF NEPHROPATHY AND/OR DIABETES MELLITUS, COMPRISING ENAVOGLIFLOZIN” (DAEWOONG PHARMACEUTICAL CO., LTD., priority 2022, published 2026).

Assay: Example 2: phase 3 trial, enavogliflozin 0.3 mg vs dapagliflozin 10 mg once a day for 24 weeks added to metformin in patients with type 2 diabetes (same efficacy, exploratory and safety endpoints)
Type: in vivo, human
Settings: for Non-inferiority (UCI < 0.35%): HbA1c change at week 24, vs dapagliflozin
Procedure: Subjects who met the inclusion/exclusion criteria were administered a placebo of the clinical trial drug under single-blind (subject blinding) conditions during a 2-week run-in period while continuing to receive metformin. […] The randomized subjects were administered two tablets of the clinical trial drug for each administration group once a day, and then visited the institution at weeks 6, 12, 18, and 24 during the 24-week administration period to conduct efficacy and safety evaluations.
• 1. Change in HbA1c at week 24 after administration of clinical trial drug compared to Visit 2 (randomization)
• 1. Change in HbA1c at each time point of weeks 6, 12, and 18 after administration of clinical trial drug compared to Visit 2 (randomization) • 2. Change in FPG at each time point of weeks 6, 12, 18, and 24 after administration of clinical trial drug compared to Visit 2 (randomization) • 3. Proportion of subjects achieving HbA1c<7% at each time point of weeks 6, 12, 18, and 24 after administration of clinical trial drug • 4. Proportion of subjects achieving HbA1c<6.5% at each time point of weeks 6, 12, 18, and 24 after administration of clinical trial drug • 5. Proportion of subjects achieving therapeutic response (HbA1c change (HbA1c at Visit 2-HbA1c at each evaluation time point)>0.5% or HbA1c<7% at each evaluation time point compared to Visit 2 (randomization)) at each time point of weeks 6, 12, 18 and 24 after administration of clinical trial drug
• 1. Change in fasting c-peptide at each time point of weeks 6, 12, 18, and 24 after administration of clinical trial drug compared to Visit 2 (randomization) • 2. Change in body weight at each time point of weeks 6, 12, 18, and 24 after administration of clinical trial drug compared to Visit 2 (randomization) • 3. Change in fasting lipid concentration (total cholesterol, LDL-C, HDL-C, and triglycerides) at each time point of weeks 6, 12, 18, and 24 after administration of clinical trial drug compared to Visit 2 (randomization) • 4. Changes in systolic or diastolic blood pressure at each time point of weeks 6, 12, 18, and 24 after administration of clinical trial drug compared to Visit 2 (randomization) • 5. Changes in β-cell function and insulin resistance measured by HOMA-β and HOMA-IR at each time point of weeks 6, 12, 18, and 24 after administration of clinical trial drug compared to Visit 2 (randomization) • 6. Changes in renal function-related indicators (UACR, UGCR) measured by UACR at each time point of weeks 6, 12, 18, and 24 after administration of clinical trial drug compared to Visit 2 (randomization) • 7. Changes in obesity-related indicators (adiponectin, leptin) at each time point of weeks 6, 12, 18, and 24 after administration of clinical trial drug compared to Visit 2 (randomization)

[1] = Baseline, modified per-protocol set 1, enavogliflozin 0.3 mg, dapagliflozin 10 mg
[2] = Baseline, per-protocol set, enavogliflozin 0.3 mg, dapagliflozin 10 mg
[3] = Week 6, PPS, enavogliflozin minus dapagliflozin

With OC[C@H]1O[C@@H](c2cc(Cc3ccc(C4CC4)cc3)c(Cl)c3c2CCO3)[C@H](O)[C@@H](O)[C@@H]1O [Enavogliflozin, (2S,3R,4R,5S,6R)-2-(7-chloro-6 (4-cyclopropylbenzyl)-2,3-dihydrobenzofuran-4-yl)-6-(hydroxymethyl)tetrahydro-2H-pyran-3,4,5-triol] the “Incidence of serious adverse drug reactions” value (24 weeks) was 1 case, the “Incidence of adverse events or serious adverse events between the test group and the control” value (24 weeks, vs dapagliflozin) was “no statistically significant differences” and the Adiponectin, Mean (SD) (Baseline, PPS) was 6.96 µg/mL. The Adiponectin, Median (Baseline, PPS) was 5.99 µg/mL, the “HOMA-IR, Mean (SD)” value (Baseline, PPS) was 3.45 and the “HOMA-IR, Median” value (Baseline, PPS) was 2.67. For the same molecule, the “HOMA-β, Mean (SD)” value (Baseline, PPS) was 45.53, the “HOMA-β, Median” value (Baseline, PPS) was 35.00 and the “Leptin, Mean (SD)” value (Baseline, PPS) was 12.21 ng/mL. The “Leptin, Median” value (Baseline, PPS) was 8.00 ng/mL, the “UACR, Mean (SD)” value (Baseline, PPS) was 38190 mg/kg and the “UACR, Median” value (Baseline, PPS) was 10.10 g/kg. For the same molecule, the “UGCR, Mean (SD)” value (Baseline, PPS) was 1.54 mg/mg, the “UGCR, Median” value (Baseline, PPS) was 0.14 mg/mg and the “HDL-C, Mean (SD)” value (Baseline, mPPS1) was 50.94(10.85) mg/dL. The “HDL-C, Median” value (Baseline, mPPS1) was 50.00 mg/dL, the “LDL-C, Mean (SD)” value (Baseline, mPPS1) was 86.52(30.53) mg/dL and the “LDL-C, Median” value (Baseline, mPPS1) was 83.00 mg/dL. For the same molecule, the “Triglycerides, Mean (SD)” value (Baseline, mPPS1) was 122.10(85.91) mg/dL, the “Triglycerides, Median” value (Baseline, mPPS1) was 101.00 mg/dL and the “Diastolic blood pressure, Mean (SD)” value (Baseline, mPPS2) was 77.04 mmHg. For the same molecule, the “Diastolic blood pressure, Median” value (Baseline, mPPS2) was 77.00 mmHg, the “Systolic blood pressure, Mean (SD)” value (Baseline, mPPS2) was 129.72(13.64) mmHg and the “Systolic blood pressure, Median” value (Baseline, mPPS2) was 130.00 mmHg. The “fasting Total cholesterol, Mean (SD)” value [1] was 151.43(32.91) mg/dL, the “fasting Total cholesterol, Median” value [1] was 150.00 mg/dL and the “FPG, Mean (SD)” value [2] was 145.35 mg/dL. For the same molecule, the “FPG, Median” value [2] was 147.00 mg/dL, the “HbA1c, Mean (SD)” value [2] was 7.75% and the “HbA1c, Median” value [2] was 7.49%. The “body weight, Mean (SD)” value [2] was 70.17(11.06) kg, the “body weight, Median” value [2] was 67.40 kg and the “fasting c-peptide, Mean (SD)” value [2] was 0.72(0.29) ng/mL. The “fasting c-peptide, Median” value [2] was 0.66 ng/mL, the “Non-inferiority (UCI < 0.35%)” value was “Yes” and the “Non-inferiority (UCI < 0.35%)” value (listed as enavogliflozin) was “not inferior”. For the same molecule, the Adiponectin change from baseline, ANCOVA LS mean (SE) (Week 6, PPS) was 0.92 µg/mL, the Adiponectin change from baseline, Mean (SD) (Week 6, PPS) was 0.84 µg/mL and the Adiponectin change from baseline, Median (Week 6, PPS) was 0.58 µg/mL. The Adiponectin, Mean (SD) (Week 6, PPS) was 7.8 µg/mL, the Adiponectin, Median (Week 6, PPS) was 6.87 µg/mL and the “HOMA-IR change from baseline, ANCOVA LS mean (SE)” value (Week 6, PPS) was −1.47. The “HOMA-IR change from baseline, Mean (SD)” value (Week 6, PPS) was −1.35, the “HOMA-IR change from baseline, Median” value (Week 6, PPS) was −0.91 and the “HOMA-IR, Mean (SD)” value (Week 6, PPS) was 2.10. For the same molecule, the “HOMA-IR, Median” value (Week 6, PPS) was 1.72, the “HOMA-β change from baseline, ANCOVA LS mean (SE)” value (Week 6, PPS) was 7.22 and the “HOMA-β change from baseline, Mean (SD)” value (Week 6, PPS) was 5.87. For the same molecule, the “HOMA-β change from baseline, Median” value (Week 6, PPS) was 8.10, the “HOMA-β, Mean (SD)” value (Week 6, PPS) was 51.39 and the “HOMA-β, Median” value (Week 6, PPS) was 43.00. For the same molecule, the “Leptin change from baseline, ANCOVA LS mean (SE)” value (Week 6, PPS) was -2.43 ng/mL, the “Leptin change from baseline, Mean (SD)” value (Week 6, PPS) was -2.54 ng/mL and the “Leptin change from baseline, Median” value (Week 6, PPS) was -1.36 ng/mL. For the same molecule, the “Leptin, Mean (SD)” value (Week 6, PPS) was 9.66 ng/mL, the “Leptin, Median” value (Week 6, PPS) was 5.99 ng/mL and the “UACR change from baseline, ANCOVA LS mean (SE)” value (Week 6, PPS) was -12.75 g/kg. For the same molecule, the “UACR change from baseline, Mean (SD)” value (Week 6, PPS) was -11440 mg/kg, the “UACR change from baseline, Median” value (Week 6, PPS) was 0.00 g/kg and the “UACR, Mean (SD)” value (Week 6, PPS) was 26760 mg/kg. For the same molecule, the “UACR, Median” value (Week 6, PPS) was 11.40 g/kg, the “UGCR change from baseline, ANCOVA LS mean (SE)” value (Week 6, PPS) was 65.72 mg/mg and the “UGCR change from baseline, Mean (SD)” value (Week 6, PPS) was 63.13 mg/mg. The “UGCR change from baseline, Median” value (Week 6, PPS) was 57.91 mg/mg, the “UGCR, Mean (SD)” value (Week 6, PPS) was 64.66 mg/mg and the “UGCR, Median” value (Week 6, PPS) was 58.45 mg/mg. For the same molecule, the “HOMA-IR change from baseline, LS mean difference” value [3] was −0.16, the “HOMA-β change from baseline, LS mean difference” value [3] was 9.01 and the “UACR change from baseline, LS mean difference” value [3] was -20.88 g/kg.
